Test systems include UACC-257; RXF 393; SK-MEL-5; HOP-92; NCI-H460; HCT-116; OVCAR-5; EKVX; SK-MEL-2; NCI-H226; NCI-H522; BT-549; CCRF-CEM; NCI/ADR-RES; CAKI-1; ACHN; MDA-MB-435; HCC 2998; T47D; LXFL 529.
What all share (test): inhibition of tumour cell growth, NCI panel, 48 h

From ChEMBL document CHEMBL1201862, “PubChem BioAssay data set” (2004) come the findings set out here.

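All cell lines were grown in 96-well plates and treated with compound for 48 hours. GI50 is the concentration that inhibits growth by half.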 Activity calls are given as the source filed them. Cut-off read from the data, not from the text of the source: active = GI50 up to about 1.1 µM and inactive = higher.

In the case of `CN(C)CCCNC(=O)c1cn2c(ccc3sc4ccccc4c(=O)c32)n1`, the GI50 was 15.1 µM (inactive) with UACC-257; 5.94 µM (inactive) with RXF 393; 1.55 µM (inactive) in the experiment with SK-MEL-5; 2.15 µM (inactive) in the experiment on HOP-92; 1.13 µM (inactive) with NCI-H460; 1.53 µM (inactive) in the experiment on HCT-116. The GI50 in the experiment on OVCAR-5 is 10.6 µM (inactive); in the experiment with EKVX, 14.4 µM (inactive); with SK-MEL-2, 21.5 µM (inactive); in the experiment on NCI-H226 it was 17.3 µM (inactive); with NCI-H522, 12.4 µM (inactive); with BT-549, 18.5 µM (inactive). The GI50 in the experiment with CCRF-CEM was 2.05 µM (inactive); in the experiment with NCI/ADR-RES, 2.95 µM (inactive); with CAKI-1, 3.28 µM (inactive); in the experiment on ACHN, 11.8 µM (inactive); with MDA-MB-435, 13.6 µM (inactive); in the experiment with HCC 2998 it was 11.7 µM (inactive). The GI50 in the experiment on T47D is 18.3 µM (inactive).
Consider `CCC1C(=O)OCc2c1cc1n(c2=O)C(CC)c2c-1nc1ccccc1c2Cl` (centres undefined), for which the GI50 was 29.6 µM (inactive) with UACC-257; 16.7 µM (inactive) with SK-MEL-5; 26.9 µM (inactive) in the experiment on HOP-92; 15.1 µM (inactive) with NCI-H460; 23.1 µM (inactive) in the experiment on OVCAR-5; 25.2 µM (inactive) with EKVX. Besides, the GI50 in the experiment on LXFL 529 is 25.9 µM (inactive); in the experiment on SK-MEL-2, 21 µM (inactive); in the experiment with NCI-H226, 29.1 µM (inactive); in the experiment with NCI-H522, 15 µM (inactive); in the experiment on CCRF-CEM, 11.6 µM (inactive); in the experiment with CAKI-1, 23 µM (inactive). In addition, in the experiment on ACHN, the GI50 was 27.4 µM (inactive).
Consider `COc1ccc(OC(C(=O)O)C(C)C)c2c1CCCC2=O` (centres undefined), for which the GI50 in the experiment with UACC-257, in the experiment with SK-MEL-5, with NCI-H460, with HCT-116, with OVCAR-5 and in the experiment with EKVX was > 100 µM (inactive) in each case. In addition, the GI50 in the experiment with LXFL 529, in the experiment with SK-MEL-2, with NCI-H522, in the experiment with CCRF-CEM, with CAKI-1 and in the experiment on ACHN was > 100 µM (inactive) throughout. Also, the GI50 with HCC 2998 was > 100 µM (inactive).
In the case of `CCCCN1C(=O)CS/C1=N/Nc1nc2c([nH]1)c(=O)n(C)c(=O)n2C`, the GI50 was > 100 µM (inactive) in the experiment on UACC-257; > 100 µM (inactive) in the experiment on RXF 393; 37.8 µM (inactive) with SK-MEL-5; 43.1 µM (inactive) in the experiment with HOP-92; 13.7 µM (inactive) in the experiment with NCI-H460; 15.2 µM (inactive) in the experiment on HCT-116. The GI50 in the experiment with OVCAR-5 is 14.5 µM (inactive); with EKVX, > 100 µM (inactive); in the experiment with SK-MEL-2 it was 30 µM (inactive); with NCI-H226, > 100 µM (inactive); in the experiment on NCI-H522, 61.7 µM (inactive); in the experiment with BT-549, > 100 µM (inactive). Moreover, the GI50 with CCRF-CEM is 22.2 µM (inactive); in the experiment with NCI/ADR-RES, > 100 µM (inactive); in the experiment on CAKI-1, > 100 µM (inactive); in the experiment on ACHN, > 100 µM (inactive); with MDA-MB-435, 14.7 µM (inactive); with HCC 2998, > 100 µM (inactive). For the same compound, the GI50 with T47D is 34.2 µM (inactive).
In the case of `CN(Cc1ccccc1)C(=NC#N)N(C)Cc1ccccc1`, the GI50 with UACC-257, with SK-MEL-5, with HOP-92, in the experiment on NCI-H460, in the experiment on HCT-116 and in the experiment on EKVX was > 100 µM (inactive) in each case. For the same compound, the GI50 in the experiment with LXFL 529, with SK-MEL-2, with NCI-H522, in the experiment on CAKI-1, with ACHN and in the experiment on HCC 2998 was > 100 µM (inactive) in each case.
`N[C@@H]1c2c(Br)sc(Br)c2[C@H](O)[C@@H]1O`: the GI50 in the experiment with UACC-257, in the experiment on RXF 393, in the experiment with SK-MEL-5, with HOP-92, in the experiment on NCI-H460 and in the experiment with HCT-116 was > 100 µM (inactive) each time. The GI50 in the experiment on OVCAR-5, in the experiment on EKVX, in the experiment on SK-MEL-2, in the experiment on NCI-H226, in the experiment on NCI-H522 and in the experiment with BT-549 was > 100 µM (inactive) each time. In addition, the GI50 in the experiment on CCRF-CEM, in the experiment with NCI/ADR-RES, in the experiment with CAKI-1, in the experiment on ACHN, in the experiment on MDA-MB-435 and in the experiment with HCC 2998 was > 100 µM (inactive) each time. Further, the GI50 in the experiment on T47D was > 100 µM (inactive).
Consider `COC(=O)C1=C(O)C(C(=O)OC)C2CC(=O)CC1C2(C)C` (centres undefined), for which the GI50 in the experiment with UACC-257, in the experiment with RXF 393, in the experiment with SK-MEL-5, with HOP-92, with NCI-H460 and in the experiment on HCT-116 was > 100 µM (inactive) throughout. Besides, the GI50 in the experiment with OVCAR-5, in the experiment with EKVX, in the experiment with SK-MEL-2, in the experiment on NCI-H226, with NCI-H522 and in the experiment on BT-549 was > 100 µM (inactive) each time. Also, the GI50 in the experiment with CCRF-CEM, in the experiment on NCI/ADR-RES, with CAKI-1, with ACHN, in the experiment on MDA-MB-435 and in the experiment with HCC 2998 was > 100 µM (inactive) throughout. Further, the GI50 in the experiment on T47D is > 100 µM (inactive).
Regarding `N#Cc1ccccc1NC(=O)C(=O)c1c(O)c2ccccc2oc1=O`, the GI50 in the experiment on UACC-257, in the experiment on RXF 393, in the experiment on SK-MEL-5, in the experiment on HOP-92, in the experiment with NCI-H460 and in the experiment with HCT-116 was > 100 µM (inactive) each time. For the same compound, the GI50 with OVCAR-5, in the experiment with EKVX, in the experiment on SK-MEL-2, with NCI-H226, in the experiment on NCI-H522 and in the experiment on BT-549 was > 100 µM (inactive) in each case. The GI50 with CCRF-CEM, in the experiment with NCI/ADR-RES, with CAKI-1, with ACHN, in the experiment with MDA-MB-435 and with HCC 2998 was > 100 µM (inactive) throughout. In addition, the GI50 in the experiment on T47D is > 100 µM (inactive).
Consider `CCOC(=O)/C(=C\c1ccnc2ccccc12)P(=O)(OCC)OCC`, for which the GI50 in the experiment with UACC-257 is 3.73 µM (inactive); in the experiment on RXF 393 it was 2.62 µM (inactive); with SK-MEL-5, 2.84 µM (inactive); with HOP-92, 2.49 µM (inactive); in the experiment with NCI-H460 it was 3.48 µM (inactive); with HCT-116, 1.99 µM (inactive). For the same compound, the GI50 was 2.25 µM (inactive) in the experiment with OVCAR-5; 4.65 µM (inactive) in the experiment on EKVX; 2.06 µM (inactive) in the experiment on SK-MEL-2; 10.5 µM (inactive) with NCI-H226; 1.33 µM (inactive) with NCI-H522; 2.16 µM (inactive) in the experiment with BT-549. Moreover, the GI50 in the experiment with CCRF-CEM was 0.366 µM (active); with NCI/ADR-RES, 1.72 µM (inactive); in the experiment on CAKI-1, 2.25 µM (inactive); in the experiment with ACHN it was 2.08 µM (inactive); in the experiment with MDA-MB-435, 2.75 µM (inactive); with HCC 2998 it was 12.9 µM (inactive). The GI50 in the experiment on T47D is 3.18 µM (inactive).
Turning to `COc1ccc2c(c1)[n+]([O-])c(-c1c(Cl)cccc1Cl)c(N)[n+]2[O-]`, the GI50 was 23.4 µM (inactive) in the experiment with UACC-257; 22.9 µM (inactive) in the experiment on SK-MEL-5; 45.6 µM (inactive) in the experiment with HOP-92; 44.4 µM (inactive) in the experiment on NCI-H460; > 100 µM (inactive) with OVCAR-5; 61.5 µM (inactive) in the experiment with EKVX. Moreover, the GI50 with LXFL 529 is 39.9 µM (inactive); in the experiment on SK-MEL-2 it was 26 µM (inactive); with NCI-H226 it was 79.6 µM (inactive); with NCI-H522 it was > 10 µM (inactive); with CCRF-CEM it was 57.7 µM (inactive); in the experiment with CAKI-1, 50.5 µM (inactive). The GI50 was 62.4 µM (inactive) in the experiment on ACHN and 72.3 µM (inactive) in the experiment on HCC 2998.
For the compound `C=C1C(=O)C23C(O)CC4C5(C)CCCC4(C(O)OC5)C2C(OC(C)=O)CC1C3O` (centres undefined), the GI50 was 14.8 µM (inactive) in the experiment with SK-MEL-5; 3.52 µM (inactive) with HOP-92; 4.97 µM (inactive) in the experiment with NCI-H460; 5.11 µM (inactive) with HCT-116; 18 µM (inactive) in the experiment on OVCAR-5; 14.6 µM (inactive) with EKVX. Moreover, the GI50 is 2.61 µM (inactive) in the experiment on LXFL 529; 13.8 µM (inactive) with SK-MEL-2; 19.5 µM (inactive) in the experiment on NCI-H226; 1.58 µM (inactive) in the experiment on NCI-H522; 1.88 µM (inactive) in the experiment on CCRF-CEM; 4.95 µM (inactive) in the experiment with CAKI-1. Besides, the GI50 was 12.2 µM (inactive) with ACHN and 18.2 µM (inactive) in the experiment on HCC 2998.
In the case of `O=S(=O)(O)c1cc(/N=[N+](\[O-])c2cc(S(=O)(=O)O)c3ccccc3c2)cc2ccccc12`, the GI50 with UACC-257 is 51.1 µM (inactive); in the experiment on RXF 393, 43.5 µM (inactive); with SK-MEL-5, 17.9 µM (inactive); with HOP-92, > 100 µM (inactive); in the experiment with NCI-H460, > 100 µM (inactive); with HCT-116 it was > 100 µM (inactive). Further, the GI50 in the experiment with OVCAR-5 is 32.5 µM (inactive); in the experiment with EKVX, 39.4 µM (inactive); in the experiment on SK-MEL-2 it was 24.7 µM (inactive); with NCI-H226, > 100 µM (inactive); with NCI-H522, 26.2 µM (inactive); in the experiment on BT-549, 19.5 µM (inactive). Besides, the GI50 in the experiment on CCRF-CEM is 29.7 µM (inactive); with NCI/ADR-RES it was > 100 µM (inactive); in the experiment on CAKI-1, 23.1 µM (inactive); in the experiment on ACHN, > 100 µM (inactive); in the experiment on MDA-MB-435, > 100 µM (inactive); with HCC 2998, > 100 µM (inactive). Also, the GI50 with T47D is > 100 µM (inactive).
